According to patent US20200069691A1, “HETEROCYCLIC COMPOUNDS AS HIV PROTEASE INHIBITORS” (Merck Sharp & Dohme Corp., priority 2016, published 2020):

Target: T1, wild-type HIV-1 protease (Human immunodeficiency virus type 1 group M subtype B, UniProt P04585)
T1 construct: Escherichia coli expressed wild-type HIV-1 protease protein
Assay: Assay for Inhibition of Microbial Expressed HIV Protease (peptide substrate cleavage, LC-MS/MS readout)
Format: biochemical
Conditions: E. coli expressed wild-type HIV-1 protease, mean of at least two independent experiments, read-out: HIV Pr Enzyme HIV1 PR IC50
Method in brief: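 Cleavage of Val-Ser-Gln-Asn-(β-naphthyl)Ala-Pro-Ile-Val (400 μM) by recombinant HIV-1 protease ([…]) ran 1 h at 30 °C after a 30 min room-temperature inhibitor preincubation in 50 mM sodium acetate pH 5.5. Product peak areas by LC-MS/MS gave inhibition; values average at least two independent runs.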

Compound | IC50 [nM]
N#Cc1ncc2c(n1)CN(C(=O)c1cc(CN3C(=N)NC(c4ccc(F)cc4)(c4ccc(F)cc4)C3=O)ccc1C(F)(F)F)C2 [Compound 134, 6-{[5-{[4,4-bis(4-fluorophenyl)-2-imino-5-oxoimidazolidin-1-yl]methyl}-2-(trifluoromethyl)-phenyl]carbonyl}-6,7-dihydro-5H-pyrrolo[3,4-d] pyrimidine-2-carbonitrile] | 1.08
COC(=O)Nc1ncc2c(n1)CN(C(=O)c1cc([C@@H](C)N3C(=N)N[C@](CCC(C)C)(c4ccccc4)C3=O)ccc1C(F)(F)F)C2 [Compound 135, methyl (6-{[5-{(1R)-1-[(4R)-2-imino-4-(3-methylbutyl)-5-oxo-4-phenylimidazolidin-1-yl]ethyl}-2-(trifluoromethyl)phenyl]carbonyl}-6,7-dihydro-5H-pyrrolo[3,4-d]pyrimidin-2-yl)carbamate] | 1.28
N#Cc1ncc2c(n1)CN(C(=O)c1cc(CN3C(=N)NC(c4ccccc4)(c4ccccc4)C3=O)ccc1C(F)(F)F)C2 [Compound 136, 6-({5-[(2-imino-5-oxo-4,4-diphenylimidazolidin-1-yl)methyl]-2-(trifluoromethyl)phenyl}-carbonyl)-6,7-dihydro-5H-pyrrolo[3,4-d]pyrimidine-2-carbonitrile] | 1.81
COC(=O)Nc1ncc2c(n1)CN(C(=O)c1cc(CN3C(=N)NC(CCC(C)C)(c4ccccc4)C3=O)ccc1C(F)(F)F)C2 (stereo not shown) [Compound 137, methyl (6-{[5-{[2-imino-4-(3-methylbutyl)-5-oxo-4-phenylimidazolidin-1-yl]methyl}-2-(trifluoromethyl)phenyl]carbonyl}-6,7-dihydro-5H-pyrrolo[3,4-d]pyrimidin-2-yl)carbamate] | 1.88
N=C1NC(c2ccc(F)cc2)(c2ccc(F)cc2)C(=O)N1Cc1ccc(C(F)(F)F)c(C(=O)N2Cc3cncnc3C2)c1 [Compound 138, 3-[3-(5,7-dihydro-6H-pyrrolo[3,4-d]pyrimidin-6-ylcarbonyl)-4-(trifluoromethyl)benzyl]-5,5-bis(4-fluorophenyl)-2-iminoimidazolidin-4-one] | 2.78
N=C1NC(c2ccc(F)cc2)(c2ccc(F)cc2)C(=O)N1Cc1ccc(C(F)(F)F)c(C(=O)N2Cc3nccnc3C2)c1 [Compound 139, 3-[3-(5,7-dihydro-6H-pyrrolo[3,4-b]pyrazin-6-ylcarbonyl)-4-(trifluoromethyl)benzyl]-5,5-bis(4-fluorophenyl)-2-iminoimidazolidin-4-one] | 2.93
CC(C)CC1(c2ccccc2)NC(=N)N(Cc2ccc(C(F)(F)F)c(C(=O)N3Cc4cnc(C#N)nc4C3)c2)C1=O (stereo not shown) [Compound 140, 6-{[5-{[2-imino-4-(2-methylpropyl)-5-oxo-4-phenylimidazolidin-1-yl]methyl}-2-(trifluoromethyl)phenyl]carbonyl}-6,7-dihydro-5H-pyrrolo[3,4-d]pyrimidine-2-carbonitrile] | 2.93
CC(C)CC[C@]1(c2ccccc2)NC(=N)N([C@H](C)c2ccc(C(F)(F)F)c(C(=O)N3Cc4nccnc4C3)c2)C1=O [Compound 141, (5R)-3-{(1R)-1-[3-(5,7-dihydro-6H-pyrrolo[3,4-b]pyrazin-6-ylcarbonyl)-4-(trifluoromethyl)phenyl]ethyl}-2-imino-5-(3-methylbutyl)-5-phenylimidazolidin-4-one] | 3.04
CC(C)CC1(c2ccccc2)NC(=N)N(Cc2ccc(C(F)(F)F)c(C(=O)N3Cc4nccnc4C3)c2)C1=O (stereo not shown) [Compound 142, 3-[3-(5,7-dihydro-6H-pyrrolo[3,4-b]pyrazin-6-ylcarbonyl)-4-(trifluoromethyl)benzyl]-2-imino-5-(2-methylpropyl)-5-phenylimidazolidin-4-one] | 3.23
N=C1NC(c2ccccc2)(c2ccccc2)C(=O)N1Cc1ccc(C(F)(F)F)c(C(=O)N2Cc3nccnc3C2)c1 [Compound 143, 3-[3-(5,7-dihydro-6H-pyrrolo[3,4-b]pyrazin-6-ylcarbonyl)-4-(trifluoromethyl)benzyl]-2-imino-5,5-diphenylimidazolidin-4-one] | 3.43
CC(C)CCC1(c2ccc(F)cc2)NC(=N)N(Cc2ccc(C(F)(F)F)c(C(=O)N3Cc4cncnc4C3)c2)C1=O (stereo not shown) [Compound 144, 3-[3-(5,7-dihydro-6H-pyrrolo[3,4-d]pyrimidin-6-ylcarbonyl)-4-(trifluoromethyl)benzyl]-5-(4-fluorophenyl)-2-imino-5-(3-methylbutyl)imidazolidin-4-one] | 3.73
N=C1NC(c2ccccc2)(c2ccccc2)C(=O)N1Cc1ccc(C(F)(F)F)c(C(=O)N2Cc3cncnc3C2)c1 [Compound 145, 3-[3-(5,7-dihydro-6H-pyrrolo[3,4-d]pyrimidin-6-ylcarbonyl)-4-(trifluoromethyl)benzyl]-2-imino-5,5-diphenylimidazolidin-4-one] | 4.03
CC(C)CCC1(c2ccc(F)cc2)NC(=N)N(Cc2ccc(C(F)(F)F)c(C(=O)N3Cc4nccnc4C3)c2)C1=O (stereo not shown) [Compound 146, 3-[3-(5,7-dihydro-6H-pyrrolo[3,4-b]pyrazin-6-ylcarbonyl)-4-(trifluoromethyl)benzyl]-5-(4-fluorophenyl)-2-imino-5-(3-methylbutyl)imidazolidin-4-one] | 4.07
CC(C)C[C@]1(c2ccccc2)NC(=N)N([C@H](C)c2ccc(C(F)(F)F)c(C(=O)N3Cc4nccnc4C3)c2)C1=O [Compound 147, (5R)-3-{(1R)-1-[3-(5,7-dihydro-6H-pyrrolo[3,4-b]pyrazin-6-ylcarbonyl)-4-(trifluoromethyl)phenyl]ethyl}-2-imino-5-(2-methylpropyl)-5-phenylimidazolidin-4-one] | 4.75
CC(C)CCC1(c2ccccc2)NC(=N)N(Cc2ccc(C(F)(F)F)c(C(=O)N3Cc4cnc(C#N)nc4C3)c2)C1=O (stereo not shown) [Compound 148, 6-{[5-{[2-imino-4-(3-methylbutyl)-5-oxo-4-phenylimidazolidin-1-yl]methyl}-2-(trifluoromethyl)phenyl]carbonyl}-6,7-dihydro-5H-pyrrolo[3,4-d]pyrimidine-2-carbonitrile] | 5.21
CC(C)C[C@]1(c2ccccc2)NC(=N)N(Cc2ccc(C(F)(F)F)c(C(=O)N3Cc4nccnc4C3)c2)C1=O [Compound 149, (5R)-3-[3-(5,7-dihydro-6H-pyrrolo[3,4-b]pyrazin-6-ylcarbonyl)-4-(trifluoromethyl)-benzyl]-2-imino-5-(2-methylpropyl)-5-phenyl-imidazolidin-4-one] | 5.24
CC(C)CC1(c2ccccc2)NC(=N)N(Cc2ccc(C(F)(F)F)c(C(=O)N3Cc4cncnc4C3)c2)C1=O (stereo not shown) [Compound 150, 3-[3-(5,7-dihydro-6H-pyrrolo[3,4-d]pyrimidin-6-ylcarbonyl)-4-(trifluoromethyl)benzyl]-2-imino-5-(2-methylpropyl)-5-phenylimidazolidin-4-one] | 5.49
CC(C)CCC1(c2ccccc2)NC(=N)N(Cc2ccc(C(F)(F)F)c(C(=O)N3Cc4nccnc4C3)c2)C1=O (stereo not shown) [Compound 151, 3-[3-(5,7-dihydro-6H-pyrrolo[3,4-b]pyrazin-6-ylcarbonyl)-4-(trifluoromethyl)benzyl]-2-imino-5-(3-methylbutyl)-5-phenylimidazolidin-4-one] | 6.62
CC(C)CCC1(c2ccccc2)NC(=N)N(Cc2ccc(C(F)(F)F)c(C(=O)N3Cc4cncnc4C3)c2)C1=O (stereo not shown) [Compound 152, 3-[3-(5,7-dihydro-6H-pyrrolo[3,4-d]pyrimidin-6-ylcarbonyl)-4-(trifluoromethyl)benzyl]-2-imino-5-(3-methylbutyl)-5-phenylimidazolidin-4-one] | 7.8
CN1CCN(C(=O)c2cc(CN3C(=N)NC(c4ccccc4)(c4ccccc4)C3=O)ccc2C(F)(F)F)CC1=O [Compound 153, 4-({5-[(2-imino-5-oxo-4,4-diphenylimidazolidin-1-yl)methyl]-2-(trifluoromethyl)phenyl}-carbonyl)-1-methylpiperazin-2-one] | 10.1
COc1ccc2c(c1)CCN(C(=O)c1cc(CN3C(=N)NC(CCC(C)C)(c4ccccc4)C3=O)ccc1C(F)(F)F)CC2 (stereo not shown) [Compound 154, 2-imino-3-{3-[(7-methoxy-1,2,4,5-tetrahydro-3H-3-benzazepin-3-yl)carbonyl]-4-(trifluoromethyl)-benzyl}-5-(3-methylbutyl)-5-phenylimidazolidin-4-one] | 10.2
CC(C)CCC1(c2ccccc2)NC(=N)N(Cc2ccc(C(F)(F)F)c(C(=O)N3CCC(n4c(=O)[nH]c5ccccc54)CC3)c2)C1=O (stereo not shown) [Compound 155, 1-(1-{[5-{[2-imino-4-(3-methylbutyl)-5-oxo-4-phenyl-imidazolidin-1-yl]methyl}-2-(trifluoromethyl)phenyl]carbonyl}piperidin-4-yl)-1,3-dihydro-2H-benzimidazol-2-one] | 11.3
CC(C)CC1(c2ccccc2)NC(=N)N(Cc2ccc(C(F)(F)F)c(C(=O)N3CCN(C)C(=O)C3)c2)C1=O (stereo not shown) [Compound 156, 4-{[5-{[2-imino-4-(2-methylpropyl)-5-oxo-4-phenylimidazolidin-1-yl]methyl}-2-(trifluoromethyl)phenyl]carbonyl}-1-methylpiperazin-2-one] | 13.5
CN1CCN(C(=O)c2cc(CN3C(=N)NC(c4ccc(F)cc4)(c4ccc(F)cc4)C3=O)ccc2C(F)(F)F)CC1=O [Compound 157, 4-{[5-{[4,4-bis(4-fluorophenyl)-2-imino-5-oxoimidazolidin-1-yl]methyl}-2-(trifluoromethyl)phenyl]carbonyl}-1-methylpiperazin-2-one] | 14.1
CC(C)CCC1(c2ccc(F)cc2)NC(=N)N(Cc2ccc(C(F)(F)F)c(C(=O)N3Cc4nc(-c5ccccc5)oc4C3)c2)C1=O (stereo not shown) [Compound 158, 5-(4-fluorophenyl)-2-imino-5-(3-methylbutyl)-3-{3-[(2-phenyl-4,6-dihydro-5H-pyrrolo[3,4-d][1,3]oxazol-5-yl)carbonyl]-4-(trifluoromethyl)benzyl} imidazolidin-4-one] | 15.8
